The test system of assay [1] is (Ser-473) pAKT in B103 (Rat Neuroblastoma) cells. The assay is described as follows: pAKT protocol: loss of (Ser-473) pAKT by AlphaScreen in insulin-stimulated B103 cells. To be noted: (Ser-473) pAKT/total AKT IC50, 2-hour pretreatment, 2.5 μg/mL insulin 20 minutes. Type of assay: cell-based. The essentials:
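Rat neuroblastoma B103 cells, serum-starved 6 h, were pretreated 2 h with inhibitors (6-point 1:3 series, 0.5% DMSO) before insulin stimulation. Lysate Ser-473 pAKT and total AKT measured by AlphaScreen; pAKT/total AKT ratio fitted to 4-parameter curve, bottom constrained to reference control, top anchored to DMSO.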
(In general: In Alpha technology, singlet oxygen from a donor bead excites a nearby acceptor bead.)

The next assay has as its target PI3Kα (Homo sapiens (Human), UniProt P42336). The assay is described as follows: Inhibition of PI3Kα (ADP-Glo kinase activity assay, ATP to ADP conversion). Type of assay: biochemical. To be noted: 25 μM PIP2:PS, 60 μM ATP, 30 min reaction, luminescence. A digest of the protocol: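 Recombinant active PI3Kα (1.1 nM) in HEPES pH 7.5 buffer with 6 mM MgCl2 and 8 mM DTT was preincubated with compound for 0 or 3 h. The reaction ran for 30 min with 25 µM PIP2:PS and 60 µM ATP, and ADP formation was read by ADP-Glo luminescence. IC50 came from a 12-point, 1:3 series fitted with a 4-parameter model, bottom fixed to reference inhibitor controls and top floating.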

The target of a further assay is mTor kinase (Homo sapiens (Human), UniProt P42345). In words: mTor assay (33P-ATP filter-binding kinase assay). Type of assay: biochemical. To be noted: 2 hours at room temperature. Here is the method:
The substrate was prepared in base reaction buffer (20 mM Hepes (pH 7.5), 10 mM MgCl2, 1 mM EGTA, 0.02% Brij35, 0.02 mg/ml BSA, 0.1 mM Na3VO4, 2 mM DTT, 1% DMSO), and required cofactors were added to the substrate solution. The mTor kinase was delivered into the substrate solution, and the solution was gently mixed. Testing compounds were dissolved in 100% DMSO to specific concentration. The serial dilution was conducted by Integra Viaflo Assist in DMSO. The compounds were delivered into the kinase reaction mixture by Acoustic technology (Echo550; nanoliter range), and the reaction mixture was incubated for 20 min at room temperature. Then, 33P-ATP (Specific activity 10 μCi/μl) was delivered into the reaction mixture to initiate the reaction. The reaction mixture was incubated for 2 hours at room temperature. Radioactivity was detected by a filter-binding method. Kinase activity data were expressed as the percent remaining kinase activity in test samples compared to vehicle (dimethyl sulfoxide) reactions. IC50 values and curve fits were obtained using Prism (GraphPad Software).

The record followed here is patent publication US11492348B2, “Tri-substituted aryl and heteroaryl derivatives as modulators of PI3-kinase and autophagy pathways” (Neuropore Therapies, Inc., priority 2018, dated 2022).

The IC50 is the point on the concentration scale where inhibition reaches its midpoint.

Chain of PI3Kα (P42336 whole entry): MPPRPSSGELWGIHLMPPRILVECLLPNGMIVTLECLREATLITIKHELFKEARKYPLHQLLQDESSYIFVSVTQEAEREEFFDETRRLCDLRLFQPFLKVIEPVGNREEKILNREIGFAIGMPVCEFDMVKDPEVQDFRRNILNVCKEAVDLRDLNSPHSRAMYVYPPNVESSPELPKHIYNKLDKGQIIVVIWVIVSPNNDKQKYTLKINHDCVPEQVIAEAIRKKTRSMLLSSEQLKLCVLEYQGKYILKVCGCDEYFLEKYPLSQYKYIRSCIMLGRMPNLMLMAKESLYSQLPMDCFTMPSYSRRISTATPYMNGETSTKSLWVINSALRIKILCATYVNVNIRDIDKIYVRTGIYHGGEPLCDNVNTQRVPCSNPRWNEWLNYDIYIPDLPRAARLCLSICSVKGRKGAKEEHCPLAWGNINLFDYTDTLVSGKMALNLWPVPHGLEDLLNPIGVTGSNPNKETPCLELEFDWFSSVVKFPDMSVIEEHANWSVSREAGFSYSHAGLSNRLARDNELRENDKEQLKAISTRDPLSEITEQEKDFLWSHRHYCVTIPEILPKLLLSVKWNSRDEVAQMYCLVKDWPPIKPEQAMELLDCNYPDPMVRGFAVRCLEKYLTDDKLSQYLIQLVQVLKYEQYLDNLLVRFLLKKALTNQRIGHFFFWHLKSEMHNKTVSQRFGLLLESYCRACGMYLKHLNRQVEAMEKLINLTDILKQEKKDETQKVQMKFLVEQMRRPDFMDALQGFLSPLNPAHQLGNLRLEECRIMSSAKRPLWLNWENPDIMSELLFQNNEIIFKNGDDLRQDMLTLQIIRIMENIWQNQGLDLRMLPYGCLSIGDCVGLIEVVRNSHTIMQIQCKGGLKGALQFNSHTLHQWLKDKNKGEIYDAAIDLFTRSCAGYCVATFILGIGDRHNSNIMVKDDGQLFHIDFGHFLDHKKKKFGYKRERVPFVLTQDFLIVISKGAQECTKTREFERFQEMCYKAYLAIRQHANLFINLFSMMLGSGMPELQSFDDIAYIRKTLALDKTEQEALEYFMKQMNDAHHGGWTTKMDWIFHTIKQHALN
Chain of PI3Kα (P27986 whole entry partner): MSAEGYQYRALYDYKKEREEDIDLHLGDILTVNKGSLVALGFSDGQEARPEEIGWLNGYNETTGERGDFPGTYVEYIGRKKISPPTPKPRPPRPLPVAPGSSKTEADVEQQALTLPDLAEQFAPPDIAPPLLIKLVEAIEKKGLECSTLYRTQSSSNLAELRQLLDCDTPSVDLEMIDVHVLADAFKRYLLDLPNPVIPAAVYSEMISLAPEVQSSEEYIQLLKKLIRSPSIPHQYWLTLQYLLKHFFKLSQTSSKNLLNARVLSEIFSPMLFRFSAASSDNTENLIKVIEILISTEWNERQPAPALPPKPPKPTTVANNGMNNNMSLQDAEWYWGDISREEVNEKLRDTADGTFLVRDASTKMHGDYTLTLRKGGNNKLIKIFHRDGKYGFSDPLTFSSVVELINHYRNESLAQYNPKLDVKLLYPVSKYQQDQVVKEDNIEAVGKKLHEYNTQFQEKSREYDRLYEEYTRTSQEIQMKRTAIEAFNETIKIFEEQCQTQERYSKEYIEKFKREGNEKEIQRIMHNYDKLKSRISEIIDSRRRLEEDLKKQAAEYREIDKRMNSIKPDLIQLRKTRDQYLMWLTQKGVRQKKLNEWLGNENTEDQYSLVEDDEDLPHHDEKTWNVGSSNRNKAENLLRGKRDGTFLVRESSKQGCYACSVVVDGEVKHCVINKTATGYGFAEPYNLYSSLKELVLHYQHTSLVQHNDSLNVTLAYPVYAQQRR

Turning to `COc1ccccc1Oc1cc(-c2cnc(N)nc2)nc(N2CCOCC2)c1` [Compound 135, 5-(4-(2-methoxyphenoxy)-6-morpholinopyridin-2-yl)pyrimidin-2-amine], the values for the IC50 (in assay [1]; on mTor kinase) were 1620 nM and 700 nM, respectively. In addition, the “PI3Ka IC50” value at PI3Kα came out at 79 nM.

Turning to `Nc1ncc(-c2cc(C(F)(F)C3CCOCC3)cc(N3CCOCC3)n2)cn1` [Compound 133, 5-(4-(difluoro(tetrahydro-2H-pyran-4-yl)methyl)-6-morpholinopyridin-2-yl)pyrimidin-2-amine], the IC50 in assay [1] stood at 400 nM; on mTor kinase it was 440 nM. Moreover, the “PI3Ka IC50” value at PI3Kα came out at 12 nM.

As for `N#Cc1ccc(S(=O)(=O)c2cc(-c3cnc(N)nc3C(F)(F)F)cc(N3CCOCC3)c2)cc1` [Compound 17, 4-((3-(2-amino-4-(trifluoromethyl)pyrimidin-5-yl)-5-morpholinophenyl)sulfonyl)benzonitrile], the IC50 (in assay [1]; at mTor kinase) was 100000 nM each time. Besides, the “PI3Ka IC50” value on PI3Kα worked out at 1900 nM.

For `N#Cc1cccc(CS(=O)(=O)c2cc(-c3cnc(N)nc3)cc(N3CCOCC3)c2)c1` [Compound 27, 3-(((3-(2-aminopyrimidin-5-yl)-5-morpholinophenyl)sulfonyl)methyl) benzonitrile], the IC50 in assay [1] came to 14000 nM; at mTor kinase it was 11000 nM. The “PI3Ka IC50” value at PI3Kα came to 380 nM.

In the case of `Nc1cc(F)c(-c2cc(N3CCOCC3)cc(S(=O)(=O)[C@@H]3CCOC3)c2)cn1` [Compound 106, (R)-4-fluoro-5-(3-morpholino-5-((tetrahydrofuran-3-yl)sulfonyl)phenyl)pyridin-2-amine], the IC50 is 4100 nM in assay [1] and 1460 nM at mTor kinase. On PI3Kα, the “PI3Ka IC50” value is 100 nM.

For the compound `Nc1ncc(-c2cc(N3CCOCC3)cc(S(=O)(=O)Cc3ccccc3)c2)cn1` [Compound 23, 5-(3-(benzylsulfonyl)-5-morpholinophenyl)pyrimidin-2-amine], the IC50 in assay [1] came to 8500 nM; at mTor kinase, 3000 nM. Besides, the “PI3Ka IC50” value at PI3Kα stood at 100 nM.

In the case of `Nc1ncc(-c2cc(N3CCOCC3)cc(S(=O)(=O)C3CCOC3)c2)cn1` (stereo not drawn) [Compound 51, 5-(3-morpholino-5-((tetrahydrofuran-3-yl)sulfonyl)phenyl)pyrimidin-2-amine], the values for the IC50 (in assay [1]; at mTor kinase) were 2120 nM and 460 nM, respectively. Moreover, at PI3Kα, the “PI3Ka IC50” value was determined as 120 nM.

For `Cc1cnccc1-c1cc(N2CCOCC2)cc(S(=O)(=O)c2ccccc2)c1` [Compound 12, 4-(3-(3-methylpyridin-4-yl)-5-(phenylsulfonyl)phenyl)morpholine], the IC50 (in assay [1]; at mTor kinase) was 100000 nM in each case. On PI3Kα, the “PI3Ka IC50” value came to 9000 nM.

Take `Nc1ncc(-c2cc(S(=O)(=O)c3ccccc3)cc(N3CCOCC3)n2)cn1` [Compound 115, 5-(6-morpholino-4-(phenylsulfonyl)pyridin-2-yl)pyrimidin-2-amine]: the IC50 in assay [1] stood at 570 nM; on mTor kinase, 63 nM. Also, on PI3Kα, the “PI3Ka IC50” value stood at 66 nM.

Take `Nc1cc(C(F)(F)F)c(-c2cc(N3CCOCC3)cc(S(=O)(=O)C3CCOC3)c2)cn1` (stereo not drawn) [Compound 70, 5-(3-morpholino-5-((tetrahydrofuran-3-yl)sulfonyl)phenyl)-4-(trifluoromethyl)pyridin-2-amine]: the results for the IC50 (in assay [1]; at mTor kinase) were 4020 nM and 7610 nM, respectively. On PI3Kα, the “PI3Ka IC50” value was 7600 nM.

With `CC(=O)N1CCC(S(=O)(=O)c2cc(-c3cnc(N)nc3)cc(N3CCOCC3)c2)C1` (stereo not drawn) [Compound 91, 1-(3-((3-(2-aminopyrimidin-5-yl)-5-morpholinophenyl)sulfonyl)pyrrolidin-1-yl)ethan-1-one], the IC50 turned out to be 7330 nM in assay [1] and 2580 nM on mTor kinase. Also, the “PI3Ka IC50” value on PI3Kα was 180 nM.

For `Nc1ncc(-c2cc(N3CCOCC3)cc(S(=O)(=O)Cc3ccc(F)cc3)c2)cn1` [Compound 29, 5-(3-((4-fluorobenzyl)sulfonyl)-5-morpholinophenyl)pyrimidin-2-amine], the IC50 (in assay [1]; on mTor kinase) was 10900 nM throughout. The “PI3Ka IC50” value on PI3Kα was found to be 370 nM.

`Nc1ncc(-c2cc(N3CCOCC3)cc(S(=O)(=O)[C@H]3CCOC3)c2)cn1` [Compound 53, (S)-5-(3-morpholino-5-((tetrahydrofuran-3-yl)sulfonyl)phenyl)pyrimidin-2-amine]: the values for the IC50 (in assay [1]; on mTor kinase) were 1650 nM and 540 nM, respectively. The “PI3Ka IC50” value at PI3Kα is 110 nM.

Consider `Nc1ncc(-c2cc(N3CCOCC3)cc(S(=O)(=O)c3ccccc3)c2)cn1` [Compound 1, 5-(3-morpholino-5-(phenylsulfonyl)phenyl)pyrimidin-2-amine], for which the values for the IC50 (in assay [1]; on mTor kinase) were 7520 nM and 2000 nM, respectively. On PI3Kα, the “PI3Ka IC50” value was determined as 610 nM.

For the compound `CC(=O)Nc1ncc(-c2cc(N3CCOCC3)cc(S(=O)(=O)c3ccccc3)c2)cn1` [Compound 30, N-(5-(3-morpholino-5-(phenylsulfonyl)phenyl)pyrimidin-2-yl)acetamide], the IC50 in assay [1] was 18000 nM; at mTor kinase, 10900 nM. Moreover, the “PI3Ka IC50” value on PI3Kα was 3100 nM.

As for `Nc1ncc(-c2cc(N3CCOCC3)cc(S(=O)(=O)c3ccc(OC(F)(F)F)cc3)c2)cn1` [Compound 15, 5-(3-morpholino-5-((4-(trifluoromethoxy)phenyl)sulfonyl)phenyl) pyrimidin-2-amine], the IC50 in assay [1] worked out at 100000 nM; on mTor kinase it was 22000 nM. The “PI3Ka IC50” value at PI3Kα was found to be 3500 nM.

As for `Nc1ncc(-c2cc(N3CCOCC3)cc(S(=O)(=O)Cc3ccc4[nH]ccc4c3)c2)cn1` [Compound 56, 5-(3-(((1H-indol-5-yl)methyl)sulfonyl)-5-morpholinophenyl)pyrimidin-2-amine], the figures for the IC50 (in assay [1]; on mTor kinase) were 19800 nM and 6150 nM, respectively. For the same compound, the “PI3Ka IC50” value on PI3Kα came to 260 nM.

Consider `Nc1ncc(-c2cc(N3CCOCC3)cc(S(=O)(=O)Cc3ccc(F)cc3F)c2)cn1` [Compound 26, 5-(3-((2,4-difluorobenzyl)sulfonyl)-5-morpholinophenyl)pyrimidin-2-amine], for which the figures for the IC50 (in assay [1]; on mTor kinase) were 6200 nM and 5300 nM, respectively. Besides, at PI3Kα, the “PI3Ka IC50” value worked out at 270 nM.

With `CC(=O)N1CC(S(=O)(=O)c2cc(-c3cnc(N)nc3)cc(N3CCOCC3)c2)C1` [Compound 68, 1-(3-((3-(2-aminopyrimidin-5-yl)-5-morpholinophenyl)sulfonyl)azetidin-1-yl)ethan-1-one], the IC50 was determined as 4660 nM in assay [1] and 1210 nM at mTor kinase. Besides, the “PI3Ka IC50” value on PI3Kα is 47 nM.

With `CCNC(=O)N1CC(S(=O)(=O)c2cc(-c3cnc(N)nc3)cc(N3CCOCC3)c2)C1` [Compound 93, 3-((3-(2-aminopyrimidin-5-yl)-5-morpholinophenyl)sulfonyl)-N-ethylazetidine-1-carboxamide], the IC50 is 5440 nM in assay [1] and 870 nM at mTor kinase. Besides, the “PI3Ka IC50” value on PI3Kα was found to be 88 nM.

In the case of `Nc1ncc(-c2cc(OC3CN(C(=O)C4CC4)C3)cc(N3CCOCC3)n2)cn1` [Compound 129, (3-((2-(2-aminopyrimidin-5-yl)-6-morpholinopyridin-4-yl)oxy)azetidin-1-yl)(cyclopropyl)methanone], the half-maximal inhibitory concentration (IC50) is 3460 nM in assay [1] and 2950 nM at mTor kinase. Moreover, the “PI3Ka IC50” value on PI3Kα came to 34 nM.

As for `Nc1ncc(-c2cc(C(F)(F)c3ccccc3)cc(N3CCOCC3)n2)cn1` [Compound 123, 5-(4-(Difluoro(phenyl)methyl)-6-morpholinopyridin-2-yl)pyrimidin-2-amine], the IC50 in assay [1] turned out to be 460 nM; on mTor kinase, 560 nM. Besides, at PI3Kα, the “PI3Ka IC50” value was 46 nM.

For the compound `Nc1ncc(-c2cc(N3CCOCC3)cc(S(=O)(=O)CC3CCOCC3)c2)cn1` [Compound 39, 5-(3-morpholino-5-(((tetrahydro-2H-pyran-4-yl)methyl)sulfonyl)phenyl)pyrimidin-2-amine], the IC50 in assay [1] was 9900 nM; at mTor kinase, 4800 nM. The “PI3Ka IC50” value on PI3Kα is 790 nM.

On to `Nc1ncc(-c2cc(Oc3ccccc3)cc(N3CCOCC3)n2)cn1` [Compound 120, 5-(6-morpholino-4-phenoxypyridin-2-yl)pyrimidin-2-amine], for which the IC50 worked out at 640 nM in assay [1] and 480 nM on mTor kinase. For the same compound, the “PI3Ka IC50” value on PI3Kα was found to be 91 nM.

For `CC(C)(C)OC(=O)N1CC(S(=O)(=O)c2cc(-c3cnc(N)nc3)cc(N3CCOCC3)c2)C1` [Compound 54, tert-butyl 3-((3-(2-aminopyrimidin-5-yl)-5-morpholinophenyl)sulfonyl) azetidine-1-carboxylate], the IC50 in assay [1] is 2460 nM; on mTor kinase, 590 nM. The “PI3Ka IC50” value on PI3Kα amounted to 130 nM.
